Experimental findings from PubChem BioAssay (NCI) are described below.

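48-hour exposure; five concentrations; linearly interpolated endpoints. TGI marks complete inhibition of growth.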

Some test systems named below: A549 NSCLC; CCRF-CEM leukemia; DLD-1 colon; HOP-18 NSCLC; LXFL 529 NSCLC; M19-MEL melanoma; NCI-H23 lung; NCI-H460 lung; SNB-19 CNS; SNB-78 CNS; UACC-257 melanoma; XF 498 CNS; HS 578T breast.
Holding throughout (assay): NCI-60 cell line screen, 48 h

Regarding `CCOC(=O)C(=O)NCCCN1CCOCC1`, the TGI in the assay with A549 NSCLC, in the assay with CCRF-CEM leukemia, with DLD-1 colon, in the assay with HOP-18 NSCLC, with LXFL 529 NSCLC and in the assay on M19-MEL melanoma was > 100 µM throughout. The TGI in the assay with NCI-H23 lung, with NCI-H460 lung, with SNB-19 CNS, with SNB-78 CNS, in the assay with UACC-257 melanoma and in the assay with XF 498 CNS was > 100 µM in each case.
Turning to `COC1CC(CC2CCC(C)C(C(C)C(=O)O)O2)OC2(OC(C)(C3CCC(C)(C4OC(C5OC(O)(CO)C(C)CC5C)CC4C)O3)CC2C)C1C` (stereo not given), the TGI in the assay with A549 NSCLC is 21.8 µM; with CCRF-CEM leukemia, 17.7 µM; in the assay with DLD-1 colon, 14.1 µM; in the assay on HOP-18 NSCLC, 11.5 µM; in the assay with HS 578T breast, > 35.2 µM; in the assay on LXFL 529 NSCLC, 4.02 µM. The TGI in the assay on M19-MEL melanoma is 2.18 µM; with NCI-H23 lung, 8.76 µM; in the assay on NCI-H460 lung, 22 µM; in the assay on SNB-19 CNS, 5.67 µM; in the assay with SNB-78 CNS, 68.3 µM; with UACC-257 melanoma it was 4.07 µM. In addition, in the assay with XF 498 CNS, the TGI was found to be 1.01 µM.
